Results as given in patent publication US20090258030A1, “Materials and Methods for Improving Livestock Productivity” (priority 2006, published 2009).
Counter-ions that a name gives are not always drawn. Marks after values point to notes of the source that are not given here.

Columns and labels:
[1] = Effect of cysteamine hydrochloride on productivity of pregnant pig sows (Example 1); format: in vivo, swine (D×L×M hybrid swine)
Source text: A total of 14 heads of pregnant pig sow (which were the offspring of Duroc×Landrace×Meishan swine, also referred to herein as D×L×M hybrid swine) (84 days of pregnant) were divided into 2 groups: Control group (6) and Cysteamine group (8). The Control group was fed with basal diet. […]

[2] = Effect of cysteamine hydrochloride on weaning piglets: growth, FCR, diarrhea (Example 2); format: in vivo, swine (D×L×M weanling piglets)
Source text: Total of 100 heads of unhealthy D×L×M weanling piglets (approx. 6.78 kg) were divided into 2 groups—Control group (50 heads) & Cysteamine group (50 heads). The Control group was fed with basal diet. […]

[3] = Carcass composition/appearance of fattening pigs (Example 3); format: in vivo, swine; details: 150 g cysteamine hydrochloride per ton of feed
Method: 72 piglets were divided evenly into control group and Cysteamine group. The control group was treated with basal diet while the Cysteamine group was treated with basal diet added with 150 g cysteamine hydrochloride per ton of feed. Upon reaching the market weight of 85-90 kg, five animals from each treatment were slaughtered after fasting for one day. During slaughter, the animals were stunned with a stunning gun, bled, dehaired and eviscerated. The carcass was split […] and then chilled for 24 hours prior to fabrication. The slaughter and the chilled carcass weights were recorded. The chilled carcass weight expressed as percentage of the slaughter weight represents the dressed yield. The wholesale and retail cuts of each animals were weighed and recorded. The values were expressed as the percentage of the live weight and of the chilled carcass weight.
The area of the longissimus dorsi (LD) muscle was measured on the 12th rib of the right part of the carcasses. This was done by tracing the outline of the whole LD muscle on acetate paper and the area was measured with the use of a grading method.
There were no significant interaction effects.

[4] = Daily weight gain and feed conversion rate of beef cattle (Example 5); format: in vivo, beef cattle (Ximenta'er hybridizing beef cattle)
Method: In the following example, the test animals were beef cattle (Ximenta'er hybridizing beef cattle). The experiment was performed at the Hebei Hengshui Geling Beef Cattle Raising Farm dur the period from Oct. 10 to Dec. 21, 2002. In total, 64 heads of around 350 kg Ximenta'er hybridizing beef cattle were selected and separated into 4 groups randomly according to the principle of equalizing age, weight, grace, fur/hair condition, etc. Each group had 16 heads of beef cattle. The Control Group, Test Group I, II & III were fed a composition comprising 0, 1.5, 3, 6 g/head/day of cysteamine HCl, respectively. As noted in Tables 8, 9, and 10 below, adding a cysteamine compound to the basal diet of beef cattle can increase daily weight gain.

[5] = Effect of cysteamine compound on small-fat-tail sheep (Example 6); format: in vivo
Source text: In the following example, the test animals were sheep (small-fat-tail sheep). In total, 40 heads of small-fat-tail sheep with the average weight of 26.5 kg were randomly divided into Control group (20) and Cysteamine group (20). The control group was fed with basal diet only, while the Cysteamine group was fed a diet that included 900 g cysteamine HCl per tonnage of diet. The standard basal diet of the farm was employed for this trial.

[6] = 150 g cysteamine hydrochloride per ton feed, after 49 days, vs control
[7] = late phase pregnant sow, dosage 500 g/T, from 84 days of pregnant to weaning
[8] = 90 g of cysteamine hydrochloride per ton of feed, after 30 days, vs control
[9] = D × L × M weanling piglets, 300 ppm, 30 days
[10] = D × L × M weanling piglets, 300 ppm, 30 days, 50 head
[11] = slaughter at market weight 85-90 kg
[12] = 900 g cysteamine HCl per tonnage of diet, after 35 days
[13] = 900 g/tonnage, 35 days, vs control
[14] = feed consumed, 900 g/tonnage, 35 days, 20 head

NCCS [Cysteamine Hydrochloride, cysteamine hydrochloride]
increase in litter weight [1, 6]: 13.28% | increase in piglet born weight [1, 6]: 12.43% | increase in weaning weight [1, 6]: 8.00% | Body weight of weaned piglet (kg/head) ([1]; dosage 500 g/T, piglets weaning age 19 days): 6.21 kg/head | Birth weight per litter: Improvement ([1]; dosage 500 g/T, vs control): 2.50 kg | Birth weight per litter: Improvement (%) ([1]; dosage 500 g/T, vs control): 13.28% | Birth weight per piglet: Improvement ([1]; dosage 500 g/T, vs control): 0.23 kg/head | Birth weight per piglet: Improvement (%) ([1]; dosage 500 g/T, vs control): 12.43% | Body weight of weaned piglet: Improvement ([1]; dosage 500 g/T, vs control): 0.46 kg/head | Body weight of weaned piglet: Improvement (%) ([1]; dosage 500 g/T, vs control): 8.00% | Live piglet born rate: Improvement ([1]; dosage 500 g/T, vs control): 0.00% | Live piglet born rate: Improvement (%) ([1]; dosage 500 g/T, vs control): 0.00% | Birth weight per litter [1, 7]: 21.32 kg | Birth weight per piglet (kg/head) [1, 7]: 2.08 kg/head | Live piglet born per litter (head) [1, 7]: 10.29 head | Live piglet born rate (%) [1, 7]: 100.00% | Piglet born per litter (head) [1, 7]: 10.29 head | Total live piglet born (head) [1, 7]: 82 head | Total piglet born (head) [1, 7]: 82 head | decrease in feed conversion rate (FCR) [2, 8]: 5.56% | improvement in diarrhea condition [2, 8]: 43.24% | increase in average daily weight gain (ADG) [2, 8]: 12.83% | ADG: Improvement ([2]; 300 ppm, 30 days, vs control): +48 g/head | ADG: Improvement (%) ([2]; 300 ppm, 30 days, vs control): 12.83% | Daily feed consumption: Improvement ([2]; 300 ppm, 30 days, vs control): +44.2 g/head | Diarrhea: Improvement (%) ([2]; 300 ppm, 30 days, vs control): −43.24% | FCR: Improvement ([2]; 300 ppm, 30 days, vs control): −0.1 | FCR: Improvement (%) ([2]; 300 ppm, 30 days, vs control): −5.56% | Final Wt.: Improvement ([2]; 300 ppm, 30 days, vs control): +1.5 kg/head | Total feed consumption: Improvement ([2]; 300 ppm, 30 days, vs control): +66.3 kg | Total final weight: Improvement ([2]; 300 ppm, 30 days, vs control): +75 kg | Total weight gain: Improvement ([2]; 300 ppm, 30 days, vs control): +72.5 kg | Weight gain: Improvement ([2]; 300 ppm, 30 days, vs control): +1.45 kg/head | ADG (g/head) [2, 9]: 422 g/head | Daily feed consumption (g/head) [2, 9]: 717.4 g/head | FCR [2, 9]: 1.70 | Final Wt. (kg/head) [2, 9]: 19.46 kg/head | Weight gain (kg/head) [2, 9]: 12.66 kg/head | Total feed consumption [2, 10]: 1076.1 kg | Total final weight [2, 10]: 973 kg | Total weight gain [2, 10]: 633 kg | Diarrhea (head) ([2]; D × L × M weanling piglets, 300 ppm, 30 days, of 50 head): 21 head | backfat vs pigs fed diet without cysteamine hydrochloride [3]: significantly thinner | dressing percentage, loin eye area, and lean:fat ratio vs pigs fed without cysteamine hydrochloride [3]: no significant differences | loin cut and lean trimmings as a percent of the live-weight vs pigs fed without cysteamine hydrochloride [3]: significantly higher | Dressing % [3, 11]: 69.012% | Lean:Fat Ratio [3, 11]: 0.105 | Loin Eye Area (sq.cm) [3, 11]: 4.850 sq.cm | Backfat Thickness (cm) ([3]; slaughter at market weight 85-90 kg, P < 0.05 vs non-cysteamine HCl): 1.91^a cm | daily weight gain ([4]; Test Group III: 6 g/head/day, p<0.05 vs Control, Test Group I & II): 1.217 kg | Feed Conversion Rate (FCR): Concentrated feed ([4]; Test I: 1.5 g/head/day): 3.54 | Feed Conversion Rate (FCR): Corn Silage ([4]; Test I: 1.5 g/head/day): 14.14 | Feed Conversion Rate (FCR): Raw Grass ([4]; Test I: 1.5 g/head/day): 1.21 | Final Wt. ([4]; Test I: 1.5 g/head/day): 423.8 kg | Feed Conversion Rate (FCR): Concentrated feed ([4]; Test II: 3 g/head/day): 3.70^a | Feed Conversion Rate (FCR): Corn Silage ([4]; Test II: 3 g/head/day): 14.42^a | Feed Conversion Rate (FCR): Raw Grass ([4]; Test II: 3 g/head/day): 1.27^a | Final Wt. ([4]; Test II: 3 g/head/day): 420.5 kg | Feed Conversion Rate (FCR): Concentrated feed ([4]; Test III: 6 g/head/day): 3.09^b | Feed Conversion Rate (FCR): Corn Silage ([4]; Test III: 6 g/head/day): 12.87^b | Feed Conversion Rate (FCR): Raw Grass ([4]; Test III: 6 g/head/day): 1.06^a | Final Wt. ([4]; Test III: 6 g/head/day): 432.7 kg | amount of silage necessary in raising the sheep [5, 12]: reduction | weight (ADG) vs control [5, 12]: statistically significant increase | Daily weight gain (g/head/day) ([5]; 900 g/tonnage, 35 days): 95.71 g/head/day | Final weight (kg/head) ([5]; 900 g/tonnage, 35 days): 28.92 kg/head | Weight gain (kg/head) ([5]; 900 g/tonnage, 35 days): 3.350 kg/head | Total feed consumption ([5]; 900 g/tonnage, 35 days, 20 head): 1019.38 kg | Daily weight gain: Improvement (%) [5, 13]: 30.9% | Silage: Improvement (%) [5, 13]: −16.22% | Weight gain: Improvement (%) [5, 13]: 30.9% | Concentrate [5, 14]: 245 kg | Hay [5, 14]: 350.00 kg | Silage [5, 14]: 424.38 kg
